In patent US9738932B2, “Biomarkers for cardiovascular side-effects induced by cox-2 inhibitory compounds” (FIRALIS SAS, priority 2005, dated 2017):

Test system: mRNA expression in cardiovascular tissues
Assay: Affymetrix GeneChip mRNA expression profiling of monkey tissues (iliac vein, pulmonary vein, aorta, carotid artery, heart) after two-week oral-gavage treatment
Conditions: iliac vein
[1] = group average (Vioxx without A60055)
[2] = group avg, Vioxx without A60055

CS(=O)(=O)c1ccc(C2=C(c3ccccc3)C(=O)OC2)cc1 [Vioxx®, rofecoxib]
0.4 fold: 209813_x_at avg fold change vs control [2]
1.1 fold: BTN2A2 (205298_s_at) mRNA expression, Avg fold changes vs control [1] | CCR1 (205098_at) mRNA expression, Avg fold changes vs control [1] | CD2 (205831_at) mRNA expression, Avg fold changes vs control [1] | CD48 (204118_at) mRNA expression, Avg fold changes vs control [1] | FCGR2A (203561_at) mRNA expression, Avg fold changes vs control [1] | HLA-E (200904_at) mRNA expression, Avg fold changes vs control [1] | IL13RA1 (210904_s_at) mRNA expression, Avg fold changes vs control [1] | PIK3CD (203879_at) mRNA expression, Avg fold changes vs control [1] | SIGIRR (52940_at) mRNA expression, Avg fold changes vs control [1] | STAT1 (AFFX-HUMISGF3A/M97935_3_at) mRNA expression, Avg fold changes vs control [1] | TMSB10 (217733_s_at) mRNA expression, Avg fold changes vs control [1] | C4A (208451_s_at) avg fold change vs control [2] | CASP1 (209970_x_at) avg fold change vs control [2] | CD74 (209619_at) avg fold change vs control [2] | CTSC (201487_at) avg fold change vs control [2] | CXCL10 (204533_at) avg fold change vs control [2] | CYBA (203028_s_at) avg fold change vs control [2]
0.9 fold: FCER1G (204232_at) mRNA expression, Avg fold changes vs control [1] | C1QA (218232_at) avg fold change vs control [2] | C1R (212067_s_at) avg fold change vs control [2] | C2 (203052_at) avg fold change vs control [2] | CLU (208791_at) avg fold change vs control [2] | CYBB (203923_s_at) avg fold change vs control [2] | CYP3A5 (214234_s_at) avg fold change vs control [2] | F13A1 (203305_at) avg fold change vs control [2] | HFE (211329_x_at) avg fold change vs control [2]
0.3 fold: AIF1 (209901_x_at) avg fold change vs control [2]
2.0 fold: BTN3A1 (207485_x_at) avg fold change vs control [2] | CD3D (213539_at) avg fold change vs control [2] | F2RL1 (206429_at) avg fold change vs control [2]
14 fold: BTN3A3 (38241_at) avg fold change vs control [2]
0.5 fold: CCL5 (1405_i_at) avg fold change vs control [2]
1.4 fold: PTPN7 (204852_s_at) mRNA expression, Avg fold changes vs control [1] | B2M (201891_s_at) avg fold change vs control [2] | CASP1 (211367_s_at) avg fold change vs control [2] | CCL3 (205114_s_at) avg fold change vs control [2] | CCNB2 (202705_at) avg fold change vs control [2]
1.8 fold: CCL8 (214038_at) avg fold change vs control [2]
3.3 fold: G1P2 (205483_s_at) avg fold change vs control [2]
1.7 fold: BTN3A3 (204821_at) avg fold change vs control [2]
1.9 fold: ECGF1 (204858_s_at) avg fold change vs control [2]
0.6 fold: FKBP11 (219118_at) mRNA expression, Avg fold changes vs control [1] | AIF1 (213095_x_at) avg fold change vs control [2] | FCGR1A (214511_x_at) avg fold change vs control [2] | HCA127 (220040_x_at) avg fold change vs control [2]
1.0 fold: BCL6 (215990_s_at) mRNA expression, Avg fold changes vs control [1] | CDC2 (210559_s_at) mRNA expression, Avg fold changes vs control [1] | FCGRT (218831_s_at) mRNA expression, Avg fold changes vs control [1] | HLA-C (211799_x_at) mRNA expression, Avg fold changes vs control [1] | PRKCBP1 (209049_s_at) mRNA expression, Avg fold changes vs control [1] | STAT3 (208992_s_at) mRNA expression, Avg fold changes vs control [1] | TCIRG1 (204158_s_at) mRNA expression, Avg fold changes vs control [1] | C1QB (202953_at) avg fold change vs control [2] | CCL2 (216598_s_at) avg fold change vs control [2] | CMAH (210571_s_at) avg fold change vs control [2] | CTSS (202902_s_at) avg fold change vs control [2] | CX3CR1 (205898_at) avg fold change vs control [2] | CXCL11 (211122_s_at) avg fold change vs control [2] | CXCL12 (209687_at) avg fold change vs control [2] | CYP1B1 (202436_s_at) avg fold change vs control [2] | DUSP6 (208893_s_at) avg fold change vs control [2] | HFE (211332_x_at) avg fold change vs control [2]
0.7 fold: EMP3 (203729_at) mRNA expression, Avg fold changes vs control [1] | FKBP11 (219117_s_at) mRNA expression, Avg fold changes vs control [1] | BCL3 (204908_s_at) avg fold change vs control [2] | CCL18 (209924_at) avg fold change vs control [2]
1.6 fold: BTN3A3 (204820_s_at) avg fold change vs control [2] | CXCL9 (203915_at) avg fold change vs control [2] | GZMB (210164_at) avg fold change vs control [2]
1.2 fold: CD53 (203416_at) mRNA expression, Avg fold changes vs control [1] | CYBB (203922_s_at) mRNA expression, Avg fold changes vs control [1] | GP6 (220336_s_at) mRNA expression, Avg fold changes vs control [1] | HCLS1 (202957_at) mRNA expression, Avg fold changes vs control [1] | HEM1 (209734_at) mRNA expression, Avg fold changes vs control [1] | HLA-A (210514_x_at) mRNA expression, Avg fold changes vs control [1] | HLA-A (213932_x_at) mRNA expression, Avg fold changes vs control [1] | STAT1 (200887_s_at) mRNA expression, Avg fold changes vs control [1] | TNFRSF21 (218856_at) mRNA expression, Avg fold changes vs control [1] | TRB@ (213193_x_at) mRNA expression, Avg fold changes vs control [1] | CCL19 (210072_at) avg fold change vs control [2] | HCK (208018_s_at) avg fold change vs control [2] | HFE (210864_x_at) avg fold change vs control [2]
1.3 fold: HLA-F (221978_at) mRNA expression, Avg fold changes vs control [1] | PRKCBP1 (209048_s_at) mRNA expression, Avg fold changes vs control [1] | TRB@ (210915_x_at) mRNA expression, Avg fold changes vs control [1] | C1S (208747_s_at) avg fold change vs control [2] | CD8A (205758_at) avg fold change vs control [2] | CTSK (202450_s_at) avg fold change vs control [2] | ECM1 (209365_s_at) avg fold change vs control [2]
0.8 fold: ICAM1 (202637_s_at) mRNA expression, Avg fold changes vs control [1] | THY1 (213869_x_at) mRNA expression, Avg fold changes vs control [1] | TMPO (209753_s_at) mRNA expression, Avg fold changes vs control [1] | CD14 (201743_at) avg fold change vs control [2] | CYP11B1 (214630_at) avg fold change vs control [2] | FCGR3A (204006_s_at) avg fold change vs control [2] | HFE (211863_x_at) avg fold change vs control [2]
1.5 fold: CXCL11 (210163_at) avg fold change vs control [2]
